The values that follow come from the Kinase Knowledgebase extract (Sharma et al. 2016).

The target in the assay is ROCK2 (human) (UniProt O75116). The experiment in a line: Inhibition of ROCK2 Kinase Activity.
Sequence of ROCK2 (human) (O75116 whole entry, looked up): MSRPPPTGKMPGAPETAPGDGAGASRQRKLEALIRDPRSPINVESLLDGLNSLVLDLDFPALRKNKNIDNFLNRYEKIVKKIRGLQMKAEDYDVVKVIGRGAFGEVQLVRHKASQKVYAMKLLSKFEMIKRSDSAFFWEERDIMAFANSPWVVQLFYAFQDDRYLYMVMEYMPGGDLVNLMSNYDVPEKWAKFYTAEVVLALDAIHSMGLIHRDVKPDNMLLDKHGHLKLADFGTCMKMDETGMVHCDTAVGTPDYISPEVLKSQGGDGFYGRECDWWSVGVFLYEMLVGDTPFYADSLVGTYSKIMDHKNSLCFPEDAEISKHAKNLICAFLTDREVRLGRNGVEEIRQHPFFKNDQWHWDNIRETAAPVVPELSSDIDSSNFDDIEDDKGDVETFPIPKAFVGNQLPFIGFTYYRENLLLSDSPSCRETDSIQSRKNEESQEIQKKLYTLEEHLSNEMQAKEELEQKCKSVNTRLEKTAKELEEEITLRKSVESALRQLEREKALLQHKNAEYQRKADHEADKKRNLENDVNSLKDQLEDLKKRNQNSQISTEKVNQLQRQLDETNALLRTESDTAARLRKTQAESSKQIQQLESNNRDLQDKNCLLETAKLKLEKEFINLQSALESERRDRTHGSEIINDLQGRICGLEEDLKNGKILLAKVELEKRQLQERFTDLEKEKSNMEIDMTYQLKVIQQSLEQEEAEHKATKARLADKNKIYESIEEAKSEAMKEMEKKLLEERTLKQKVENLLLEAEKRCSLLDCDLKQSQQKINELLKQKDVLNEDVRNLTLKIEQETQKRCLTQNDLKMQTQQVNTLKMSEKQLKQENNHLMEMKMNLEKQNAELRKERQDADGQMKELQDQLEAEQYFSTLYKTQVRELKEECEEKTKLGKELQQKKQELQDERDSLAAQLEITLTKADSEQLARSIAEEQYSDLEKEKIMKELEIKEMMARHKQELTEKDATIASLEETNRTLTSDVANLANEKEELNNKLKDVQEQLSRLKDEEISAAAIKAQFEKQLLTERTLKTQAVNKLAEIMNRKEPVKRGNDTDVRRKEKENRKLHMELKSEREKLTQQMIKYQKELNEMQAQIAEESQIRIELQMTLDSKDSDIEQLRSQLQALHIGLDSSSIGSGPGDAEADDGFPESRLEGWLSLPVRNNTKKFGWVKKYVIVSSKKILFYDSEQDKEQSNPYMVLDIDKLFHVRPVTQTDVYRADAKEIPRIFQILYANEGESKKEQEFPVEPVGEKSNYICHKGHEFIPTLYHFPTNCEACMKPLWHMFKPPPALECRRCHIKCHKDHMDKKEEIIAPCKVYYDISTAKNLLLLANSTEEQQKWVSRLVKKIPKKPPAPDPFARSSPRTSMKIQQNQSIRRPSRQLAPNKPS
One may read the IC50 as the midpoint of a concentration-inhibition curve. Low values mean greater potency in that assay, high ones weaker potency in that assay. As to `NC(CC(=O)N1CCN(c2ccccc2)CC1)c1ccc(C(=O)Nc2ccncc2)cc1` (stereo unspecified), the IC50 was less than 500 nM.
In the case of `NC(CC(=O)N1CCCCC1c1cc(Cl)ccc1Cl)c1ccc(C(=O)Nc2ccncc2)cc1` (stereo unspecified) it was less than 500 nM; in that of `NC(CC(=O)N1CCCC1c1ccccc1)c1ccc(C(=O)Nc2ccncc2)cc1` (stereo unspecified), less than 500 nM; in that of `NC(CC(=O)N1CCCCC1c1cccc2ccccc12)c1ccc(C(=O)Nc2ccncc2)cc1` (stereo unspecified), less than 500 nM.
`NC(c1ccc(C(=O)Nc2ccncc2)cc1)C1CCCN1S(=O)(=O)c1ccccc1Cl` (stereo unspecified): the IC50 is 500 to 5000 nM.
Under `NC(CC(=O)N1CCCCC1c1ccc(Cl)cc1)c1ccc(C(=O)Nc2ccncc2)cc1` (stereo unspecified) stands less than 500 nM.
In the case of `CCCCNNC(=O)C(N)c1ccc(C(=O)Nc2ccncc2)cc1` (stereo unspecified) it was less than 500 nM.
Consider `NC(C(=O)N1CCOCC1)c1ccc(C(=O)Nc2ccncc2)cc1` (stereo unspecified), for which the concentration for half-maximal inhibition (IC50) is less than 500 nM.
In the case of `CC[C@H](NC(=O)C(N)c1ccc(C(=O)Nc2ccncc2)cc1)c1ccccc1` (stereo partly specified) it was 500 to 5000 nM; in that of `CC1CCC(NC(=O)C(N)c2ccc(C(=O)Nc3ccncc3)cc2)CC1` (stereo unspecified), 500 to 5000 nM.
Under `N[C@@H](CC(=O)N1CCC[C@@H]1c1cccc(F)c1)c1ccc(C(=O)Nc2ccncc2)cc1` stands less than 500 nM; under `CN(C)CCNC(=O)C(N)c1ccc(C(=O)Nc2ccncc2)cc1` (stereo unspecified), 500 to 5000 nM.
For `NC(C(=O)N1CCC(c2nc3ccccc3o2)CC1)c1ccc(C(=O)Nc2ccncc2)cc1` (stereo unspecified), the IC50 is less than 500 nM.
Turning to `NC(CC(=O)N1CCC(c2ccccc2)CC1)c1ccc(C(=O)Nc2ccncc2)cc1` (stereo unspecified), the IC50 is less than 500 nM.
As for `Cc1nn(C)c(Cl)c1S(=O)(=O)NCC(N)c1ccc(C(=O)Nc2ccncc2)cc1` (stereo unspecified), the IC50 was 500 to 5000 nM.
In the case of `CC(C)C(C)NC(=O)C(N)c1ccc(C(=O)Nc2ccncc2)cc1` (stereo unspecified) it was 500 to 5000 nM.
As for `COc1ccc(NC(=O)C(N)c2ccc(C(=O)Nc3ccncc3)cc2)cc1` (stereo unspecified), the IC50 was less than 500 nM.
Under `NC(CC(=O)N1CCC(O)(c2ccccc2)CC1)c1ccc(C(=O)Nc2ccncc2)cc1` (stereo unspecified) stands less than 500 nM; under `COc1ccc(CN2CCN(C(=O)CC(N)c3ccc(C(=O)Nc4ccncc4)cc3)CC2)cc1` (stereo unspecified), 500 to 5000 nM.
Under `NC(CNS(=O)(=O)c1ccccc1F)c1ccc(C(=O)Nc2ccncc2)cc1` (stereo unspecified) stands less than 500 nM; under `Cc1ccccc1S(=O)(=O)NCC(N)c1ccc(C(=O)Nc2ccncc2)cc1` (stereo unspecified), less than 500 nM; under `NC(CC(=O)N1CCCCC1)c1ccc(C(=O)Nc2ccncc2)cc1` (stereo unspecified), less than 500 nM.
Consider `NC(C(=O)NCC1CCCO1)c1ccc(C(=O)Nc2ccncc2)cc1` (stereo unspecified), for which the IC50 fell in the range of 500 to 5000 nM.
The compound `NC(CNS(=O)(=O)c1cccc(Oc2ccccc2)c1)c1ccc(C(=O)Nc2ccncc2)cc1` (stereo unspecified) returned an IC50 of 500 to 5000 nM.
In the case of `CCNC(=O)C(N)c1ccc(C(=O)Nc2ccncc2)cc1` (stereo unspecified) it was 500 to 5000 nM; in that of `COc1ccc(S(=O)(=O)N(C)C[C@@H](N)c2ccc(C(=O)Nc3ccncc3)cc2)cc1`, less than 500 nM.
Under `CCC(NC(=O)C(N)c1ccc(C(=O)Nc2ccncc2)cc1)c1ccccc1` (stereo unspecified) stands less than 500 nM.
Under `CONC(=O)C(N)c1ccc(C(=O)Nc2ccncc2)cc1` (stereo unspecified) stands 500 to 5000 nM.
In turn, `NC(CC(=O)N1CCc2c([nH]c3ccccc23)C1c1cccc(Cl)c1)c1ccc(C(=O)Nc2ccncc2)cc1` (stereo unspecified) came in with a concentration for half-maximal inhibition (IC50) of 500 to 5000 nM.
On to `NC(C(=O)NCc1ccncc1)c1ccc(C(=O)Nc2ccncc2)cc1` (stereo unspecified), for which the IC50 is 500 to 5000 nM.
Under `N[C@H](CC(=O)N1CCC[C@H]1c1cccc(F)c1)c1ccc(C(=O)Nc2ccncc2)cc1` stands less than 500 nM.
`NC(CNS(=O)(=O)c1cccc(Cl)c1)c1ccc(C(=O)Nc2ccncc2)cc1` (stereo unspecified) showed an IC50 of less than 500 nM.
In the case of `NC(CNS(=O)(=O)c1cccc2ccccc12)c1ccc(C(=O)Nc2ccncc2)cc1` (stereo unspecified) it was less than 500 nM.
In the case of `NC(CC(=O)N1CCSC1)c1ccc(C(=O)Nc2ccncc2)cc1` (stereo unspecified) it was less than 500 nM.
Under `CC1CN(C(=O)C(N)c2ccc(C(=O)Nc3ccncc3)cc2)CC(C)O1` (stereo unspecified) stands 500 to 5000 nM; under `NC(CNS(=O)(=O)Cc1ccccc1)c1ccc(C(=O)Nc2ccncc2)cc1` (stereo unspecified), less than 500 nM.
In turn, `NC(CC(=O)N1CCN(Cc2ccccc2F)CC1)c1ccc(C(=O)Nc2ccncc2)cc1` (stereo unspecified) came in with an IC50 of less than 500 nM.
In the case of `COc1ccc(OC)c(S(=O)(=O)NCC(N)c2ccc(C(=O)Nc3ccncc3)cc2)c1` (stereo unspecified) it was less than 500 nM.
Under `NC(C(=O)NCc1cccc(Cl)c1)c1ccc(C(=O)Nc2ccncc2)cc1` (stereo unspecified) stands less than 500 nM; under `CC(NC(=O)C(N)c1ccc(C(=O)Nc2ccncc2)cc1)c1ccccc1` (stereo unspecified), less than 500 nM; under `NC(C(=O)N1CCC(O)(c2ccccc2)CC1)c1ccc(C(=O)Nc2ccncc2)cc1` (stereo unspecified), 500 to 5000 nM.
On to `CN(Cc1ccccc1)C(=O)C(N)c1ccc(C(=O)Nc2ccncc2)cc1` (stereo unspecified), for which the IC50 is less than 500 nM.
`NC(C(=O)Nc1ccccc1)c1ccc(C(=O)Nc2ccncc2)cc1` (stereo unspecified) showed a concentration for half-maximal inhibition (IC50) of 500 to 5000 nM.
In the case of `NC(CC(=O)N1CCN(C(=O)c2ccco2)CC1)c1ccc(C(=O)Nc2ccncc2)cc1` (stereo unspecified), the IC50 was less than 500 nM.
In the case of `CCCS(=O)(=O)NCC(N)c1ccc(C(=O)Nc2ccncc2)cc1` (stereo unspecified) it was less than 500 nM; in that of `NC(CC(=O)N1CCOCC1c1ccc(F)cc1)c1ccc(C(=O)Nc2ccncc2)cc1` (stereo unspecified), less than 500 nM; in that of `COc1ccc(Cl)cc1C1CCCCN1C(=O)CC(N)c1ccc(C(=O)Nc2ccncc2)cc1` (stereo unspecified), less than 500 nM.
In the case of `CC1CC(C)CN(C(=O)C(N)c2ccc(C(=O)Nc3ccncc3)cc2)C1` (stereo unspecified) it was less than 500 nM; in that of `NC(c1ccc(C(=O)Nc2ccncc2)cc1)C1CCCN1S(=O)(=O)c1cccc(F)c1` (stereo unspecified), 500 to 5000 nM.
Under `Cc1cccc(S(=O)(=O)NCC(N)c2ccc(C(=O)Nc3ccncc3)cc2)c1` (stereo unspecified) stands less than 500 nM; under `CCCCS(=O)(=O)NCC(N)c1ccc(C(=O)Nc2ccncc2)cc1` (stereo unspecified), less than 500 nM.
Compound `CC(C)N1CCN(C(=O)CC(N)c2ccc(C(=O)Nc3ccncc3)cc2)CC1` (stereo unspecified) gave an IC50 of less than 500 nM.
In the case of `NC(CC(=O)N1CCCC2CCCCC21)c1ccc(C(=O)Nc2ccncc2)cc1` (stereo unspecified), the IC50 is less than 500 nM.
As to `NC(C(=O)N1CCN(c2ccccc2)CC1)c1ccc(C(=O)Nc2ccncc2)cc1` (stereo unspecified), the IC50 fell in the range of 500 to 5000 nM.
Take `COc1ccc(S(=O)(=O)N(C)C[C@H](N)c2ccc(C(=O)Nc3ccncc3)cc2)cc1`: the IC50 lay within 5000 to 50000 nM.
Under `NC(CC(=O)N1CCCC1c1ccc(F)cc1F)c1ccc(C(=O)Nc2ccncc2)cc1` (stereo unspecified) stands less than 500 nM; under `NC(CNS(=O)(=O)c1ccccc1Cl)c1ccc(C(=O)Nc2ccncc2)cc1` (stereo unspecified), less than 500 nM; under `CC1CCN(C(=O)C(N)c2ccc(C(=O)Nc3ccncc3)cc2)CC1` (stereo unspecified), less than 500 nM.
In the case of `NC(CNS(=O)(=O)c1ccccc1)c1ccc(C(=O)Nc2ccncc2)cc1` (stereo unspecified), the IC50 was less than 500 nM.
Compound `COc1ccc(CNC(=O)C(N)c2ccc(C(=O)Nc3ccncc3)cc2)cc1` (stereo unspecified) had an IC50 of less than 500 nM.
On to `NC(CC(=O)N1CCCC1c1ccc(Cl)c(Cl)c1)c1ccc(C(=O)Nc2ccncc2)cc1` (stereo unspecified), for which the IC50 was less than 500 nM.
`NC(CNS(=O)(=O)c1ccc(Oc2ccccc2)cc1)c1ccc(C(=O)Nc2ccncc2)cc1` (stereo unspecified) came in with an IC50 of 500 to 5000 nM.
In the case of `NC(C(=O)NC1CCCCC1)c1ccc(C(=O)Nc2ccncc2)cc1` (stereo unspecified) it was 500 to 5000 nM; in that of `NC(CC(=O)N1CCCCC1c1ccc(F)cc1)c1ccc(C(=O)Nc2ccncc2)cc1` (stereo unspecified), less than 500 nM.
In the case of `COc1ccc(S(=O)(=O)N2CCCC2C(N)c2ccc(C(=O)Nc3ccncc3)cc2)cc1` (stereo unspecified) it was 500 to 5000 nM; in that of `NC(C(=O)N1CC=C(c2ccc(F)cc2)CC1)c1ccc(C(=O)Nc2ccncc2)cc1` (stereo unspecified), 500 to 5000 nM.
Under `NC(CC(=O)N1CCC(Cc2ccccc2)CC1)c1ccc(C(=O)Nc2ccncc2)cc1` (stereo unspecified) stands less than 500 nM; under `COc1ccccc1CNC(=O)C(N)c1ccc(C(=O)Nc2ccncc2)cc1` (stereo unspecified), less than 500 nM; under `NC(CC(=O)N1CCCC1c1cccc(F)c1)c1ccc(C(=O)Nc2ccncc2)cc1` (stereo unspecified), less than 500 nM.
In the case of `NC(CNS(=O)(=O)c1ccc(F)cc1)c1ccc(C(=O)Nc2ccncc2)cc1` (stereo unspecified), the IC50 is less than 500 nM.
In the case of `NC(CC(=O)N1Cc2ccccc2C1)c1ccc(C(=O)Nc2ccncc2)cc1` (stereo unspecified) it was less than 500 nM; in that of `NC(C(=O)NCCn1ccnc1)c1ccc(C(=O)Nc2ccncc2)cc1` (stereo unspecified), 500 to 5000 nM.
In turn, `CN(CC(N)c1ccc(C(=O)Nc2ccncc2)cc1)S(=O)(=O)c1ccccc1` (stereo unspecified) had an IC50 of 500 to 5000 nM.
Under `NC(CC(=O)N1CCCC1c1ccc(Cl)cc1)c1ccc(C(=O)Nc2ccncc2)cc1` (stereo unspecified) stands less than 500 nM; under `Cc1ccc(CN2CCC(NC(=O)C(N)c3ccc(C(=O)Nc4ccncc4)cc3)CC2)s1` (stereo unspecified), 500 to 5000 nM.
In the case of `NC(CC(=O)N1CCCCC1c1ccccc1)c1ccc(C(=O)Nc2ccncc2)cc1` (stereo unspecified) it was less than 500 nM; in that of `NC(CNS(=O)(=O)c1cccc(-c2ccccc2)c1)c1ccc(C(=O)Nc2ccncc2)cc1` (stereo unspecified), 500 to 5000 nM; in that of `NC(C(=O)N1CCN(CCO)CC1)c1ccc(C(=O)Nc2ccncc2)cc1` (stereo unspecified), 500 to 5000 nM.
Under `COc1ccc(CN2CCN(C(=O)C(N)c3ccc(C(=O)Nc4ccncc4)cc3)CC2)cc1` (stereo unspecified) stands 500 to 5000 nM; under `CCCCCCCCS(=O)(=O)NCC(N)c1ccc(C(=O)Nc2ccncc2)cc1` (stereo unspecified), 500 to 5000 nM; under `NC(C(=O)NCC1CC1)c1ccc(C(=O)Nc2ccncc2)cc1` (stereo unspecified), 500 to 5000 nM.
Take `CCS(=O)(=O)NCC(N)c1ccc(C(=O)Nc2ccncc2)cc1` (stereo unspecified): the IC50 was less than 500 nM.
Under `NC(C(=O)NCc1ccccc1Cl)c1ccc(C(=O)Nc2ccncc2)cc1` (stereo unspecified) stands less than 500 nM; under `CN(CC(N)c1ccc(C(=O)Nc2ccncc2)cc1)S(=O)(=O)c1ccccc1Cl` (stereo unspecified), 500 to 5000 nM.
`COCCNC(=O)C(N)c1ccc(C(=O)Nc2ccncc2)cc1` (stereo unspecified) came in with an IC50 of 500 to 5000 nM.
Under `NC(CC(=O)N1CCCC(CO)C1)c1ccc(C(=O)Nc2ccncc2)cc1` (stereo unspecified) stands less than 500 nM.
Under `NC(CC(=O)N1CCCC1c1ccc(F)cc1)c1ccc(C(=O)Nc2ccncc2)cc1` (stereo unspecified) stands less than 500 nM; under `COC(=O)c1ccc2c(c1)CCN(C(=O)CC(N)c1ccc(C(=O)Nc3ccncc3)cc1)C2` (stereo unspecified), 500 to 5000 nM.
Under `NC(C(=O)N1CCC(c2ccccc2)CC1)c1ccc(C(=O)Nc2ccncc2)cc1` (stereo unspecified) stands 500 to 5000 nM.
`NC(C(=O)N1CCN(Cc2ccc(F)cc2)CC1)c1ccc(C(=O)Nc2ccncc2)cc1` (stereo unspecified): the IC50 fell in the range of 500 to 5000 nM.
For the compound `NC(CC(=O)N1CCCC1c1cccc(Cl)c1)c1ccc(C(=O)Nc2ccncc2)cc1` (stereo unspecified), the IC50 was less than 500 nM.
